Test results as given in paper PMC8242095, “Crystal structure of an archaeal CorB magnesium transporter” (Nature Communications, 2021).

What was measured:
MtCorBΔC = biological target: T1, MtCorBΔC (Methanoculleus thermophilus, UniProt A0A1G8XA46); assay: isothermal titration calorimetry; format: binding
T1 construct: gene corB; residues 1-322 (TMD, AHB, CBS-pair; CorC domain deleted), C-terminal His6-tag, E. coli C41(DE3), detergent-solubilized
Source text: isothermal titration calorimetry on MtCorBΔC | MtCorBΔC has the highest affinity for ATP, followed by ADP and AMP

MtCorBCBS = biological target: T2, MtCorBCBS (Methanoculleus thermophilus, UniProt A0A1G8XA46); assay: isothermal titration calorimetry; also crystal structure […] Å; format: binding
T2 construct: gene corB; CBS-pair domain, residues 199-322, GST-tag cut leaving N-terminal GPLGS, E. coli BL21(DE3); crystal 7MSU came from in situ cleavage of MtCorBΔC

[1] = biological target: the molecule itself; assay: crystal structure; MtCorBΔC_(Δloop) in 0.05% UDM with 5 mM ATP and 20 mM MgCl2; hanging drop, 0.1 M sodium citrate pH 5.5, 0.1 M Li2SO4, 0.1 M NaCl, 34% PEG400, 22 °C; 3.25 Å
[2] = biological target: the molecule itself; assay: crystal structure; MtCorBΔC R235L in 0.05% UDM, no ATP; hanging drop, 0.1 M sodium citrate pH 5.5, 50 mM Li2SO4, 11% PEG4000, 10 mM MgSO4, 22 °C; 3.8 Å
[3] = biological target: the molecule itself; assay: HDX-MS; MtCorB or MtCorBΔC in MSP1D1 nanodiscs, with and without Mg2+-ATP; exchange for 3, 30, 300 or 3000 s at 20 °C, 100 mM NaCl, 20 mM HEPES pH 7.5

Nc1ncnc2c1ncn2[C@@H]1O[C@H](COP(=O)(O)OP(=O)(O)OP(=O)(O)O)[C@@H](O)[C@H]1O [ATP] was tested, and the Kd (MtCorBΔC) was 0.59 ± 0.06 µM and the Kd (MtCorBCBS) was 0.53 ± 0.05 µM.

With Nc1ncnc2c1ncn2[C@@H]1O[C@H](COP(=O)(O)OP(=O)(O)O)[C@@H](O)[C@H]1O [ADP] the Kd (MtCorBΔC) was 10.3 ± 1 µM.

With Nc1ncnc2c1ncn2[C@@H]1O[C@H](COP(=O)(O)O)[C@@H](O)[C@H]1O [AMP] the Kd (MtCorBΔC) was 83 ± 17 µM.

B1: MtCorBΔC_(Δloop) (Methanoculleus thermophilus CorB residues 1–322 Δ259–262) (domain or fragment, UniProt A0A1G8XA46 1-322, looked up)
chain: MVVIDLLIVEVVLFIAALLFSGFFSSSEVALISITRAKVHALQSQGRKGAKALDTLKRSTDAIQITTLIGSTIANVAVASLATAIGITLYGNLGIAVGLVVAAVLVLVFGEIGPKMYASRYTEELALRVSRPILFFSKLLYPVLWVTDRIEQQFAFRPGVTEPVVTEEEIKEWIDVGEEEGTIEEEERDMLYSVLRFGDTTAREVMTPRVDVVMIEDTATLESALAIFNETGFSRIPVYHERIDNIVGLLNVKDVFSAQTSATIRDLMYEPYFIPESKKIDELLKELQVKKQHMAVVLDEYGSFAGIVTVEDMLEELV
notes: CorB, Methanoculleus thermophilus, UniProt A0A1G8XA46, residues 1-322 (TMD, AHB and CBS-pair domain; CorC domain deleted) with the internal loop 259-262 deleted; Modelled: chain A residues 5-322, chain B residues 4-154 and 160-322; also called MtCorBΔC with an internal loop deletion; source: E. coli C41 (DE3), purified (Ni-NTA, SEC) in UDM
B1: binds [1].

B2: MtCorBΔC R235L (domain or fragment, Methanoculleus thermophilus, UniProt A0A1G8XA46 1-322, looked up)
chain: MVVIDLLIVEVVLFIAALLFSGFFSSSEVALISITRAKVHALQSQGRKGAKALDTLKRSTDAIQITTLIGSTIANVAVASLATAIGITLYGNLGIAVGLVVAAVLVLVFGEIGPKMYASRYTEELALRVSRPILFFSKLLYPVLWVTDRIEQQFAFRPGVTEPVVTEEEIKEWIDVGEEEGTIEEEERDMLYSVLRFGDTTAREVMTPRVDVVMIEDTATLESALAIFNETGFSLIPVYHERIDNIVGLLNVKDVFSAVFRQQTSATIRDLMYEPYFIPESKKIDELLKELQVKKQHMAVVLDEYGSFAGIVTVEDMLEELV
notes: CorB, Methanoculleus thermophilus, UniProt A0A1G8XA46, residues 1-322 (MtCorBΔC) with R235L; also called MtCorBΔC R235L mutant; apo conformation of MtCorBΔC; source: E. coli C41 (DE3), purified (Ni-NTA, SEC) in UDM
B2: binds [2].

B3: MtCorBΔC (residues 1–322) (domain or fragment, Methanoculleus thermophilus, UniProt A0A1G8XA46 1-322, looked up)
chain: MVVIDLLIVEVVLFIAALLFSGFFSSSEVALISITRAKVHALQSQGRKGAKALDTLKRSTDAIQITTLIGSTIANVAVASLATAIGITLYGNLGIAVGLVVAAVLVLVFGEIGPKMYASRYTEELALRVSRPILFFSKLLYPVLWVTDRIEQQFAFRPGVTEPVVTEEEIKEWIDVGEEEGTIEEEERDMLYSVLRFGDTTAREVMTPRVDVVMIEDTATLESALAIFNETGFSRIPVYHERIDNIVGLLNVKDVFSAVFRQQTSATIRDLMYEPYFIPESKKIDELLKELQVKKQHMAVVLDEYGSFAGIVTVEDMLEELV
notes: CorB, Methanoculleus thermophilus, UniProt A0A1G8XA46, residues 1-322 (CorC domain deleted); In nanodiscs of soybean polar extract and MSP1D1 (MtCorB:MSP1D1:lipid 2:10:550); filled nanodiscs were recovered on Ni-NTA; also called truncated MtCorB; MtCorB with a C-terminal CorC domain deletion; source: E. coli C41 (DE3), purified (Ni-NTA, SEC), reconstituted into MSP1D1 nanodiscs; not shown: His6, …
B3: binds [3].

B4: MtCorB (residues 1–426), Methanoculleus thermophilus CorB (natural protein, UniProt A0A1G8XA46 1-426, looked up)
chain: MVVIDLLIVEVVLFIAALLFSGFFSSSEVALISITRAKVHALQSQGRKGAKALDTLKRSTDAIQITTLIGSTIANVAVASLATAIGITLYGNLGIAVGLVVAAVLVLVFGEIGPKMYASRYTEELALRVSRPILFFSKLLYPVLWVTDRIEQQFAFRPGVTEPVVTEEEIKEWIDVGEEEGTIEEEERDMLYSVLRFGDTTAREVMTPRVDVVMIEDTATLESALAIFNETGFSRIPVYHERIDNIVGLLNVKDVFSAVFRQQTSATIRDLMYEPYFIPESKKIDELLKELQVKKQHMAVVLDEYGSFAGIVTVEDMLEELVGEILDEFDEEEPEVQQLEEGIYLVDARTWVEHLNEDLDLNLPLMDTYESIGGLVIERLGHIPRRGEVVKIEESNVTLVVMQMRGRRIVKVKLIIGPPVPPTESR
notes: CorB, Methanoculleus thermophilus, UniProt A0A1G8XA46, residues 1-426; In nanodiscs of soybean polar extract and MSP1D1; filled nanodiscs were recovered on Ni-NTA; also called full-length MtCorB; source: E. coli C41 (DE3), purified (Ni-NTA, SEC), reconstituted into MSP1D1 nanodiscs; not shown: His6, C-terminal, kept
B4: binds [3].
